Data taken from patent US8461410B2, “Wound dressing materials comprising complexes of anionic polysaccharides with silver” (Ethicon, Inc., priority 2002, dated 2013).

Legend:
Staphylococcus aureus = experiment: Zone of inhibition test of bactericidal activity (Procedure 1); assay type: cell-based; settings: 2 cm x 2 cm sample on inoculated DSA plate, 37° C., read every 24 hours; FIGS. 1 and 2
Procedure: (§1) Six 2 cm×2 cm squares of each sample were cut out in sterile conditions. On day one of the experiment cultures of both Pseudomonas aeruginosa and Staphylococcus aureus were incubated aerobically at 37° C. for 24 hours on Diagnostic Sensitivity Agar (DSA). After 24 hours test samples were each placed on a DSA plate and were immediately wetted with 0.5 mls of a buffer solution. Three squares of sample were placed on plates inoculated with Pseudomonas aeruginosa and three were placed on plates inoculated with Staphylococcus aureus. The plates were then incubated at 37° C. for 24 hours. The zone of inhibited growth around the sample was then measured using callipers and the test sample was placed on a new inoculated DSA plate. A swab test was carried out on the area beneath the sample to determine if the sample was bacteriostatic if not bactericidal by smearing the swab on a DSA plate and incubating it for 24 hours and then examining the growth. The samples were transferred onto fresh inoculated plates with the above procedure being carried out every 24 hours for 72 hours as long as the samples remain intact.
(§2) As a negative control, a freeze dried sponge of 45% ORC/55% collagen without any silver was tested.

Pseudomonas aeruginosa = experiment: as above; assay type: cell-based; settings: 2 cm x 2 cm sample on inoculated DSA plate, 37° C., read every 24 hours; FIG. 3
Procedure: as §1, §2

O=[N+]([O-])[O-].[Ag+] [silver nitrate solution (0.5%), silver nitrate]
bactericidal effect / zone of inhibition against Staphylococcus aureus (Staphylococcus aureus): zones of inhibition were observed | bactericidal effect / zone of inhibition against Pseudomonas aeruginosa (Pseudomonas aeruginosa): zones of inhibition were observed
